Target: IgE-Tb binding to soluble IgE receptor FcεR1α (Y131A mutation) (Homo sapiens, UniProt P01854, N146Q/N252Q)
Experiment: In vitro FRET assay: inhibition of binding of IgE-Tb to receptor FcεR1α-Y131A-AF488
Conditions: read-out: FRET IC50 range

IgE-Tb binding to soluble IgE receptor FcεR1α (Y131A mutation), sequence (P01854 whole entry N146Q/N252Q, looked up): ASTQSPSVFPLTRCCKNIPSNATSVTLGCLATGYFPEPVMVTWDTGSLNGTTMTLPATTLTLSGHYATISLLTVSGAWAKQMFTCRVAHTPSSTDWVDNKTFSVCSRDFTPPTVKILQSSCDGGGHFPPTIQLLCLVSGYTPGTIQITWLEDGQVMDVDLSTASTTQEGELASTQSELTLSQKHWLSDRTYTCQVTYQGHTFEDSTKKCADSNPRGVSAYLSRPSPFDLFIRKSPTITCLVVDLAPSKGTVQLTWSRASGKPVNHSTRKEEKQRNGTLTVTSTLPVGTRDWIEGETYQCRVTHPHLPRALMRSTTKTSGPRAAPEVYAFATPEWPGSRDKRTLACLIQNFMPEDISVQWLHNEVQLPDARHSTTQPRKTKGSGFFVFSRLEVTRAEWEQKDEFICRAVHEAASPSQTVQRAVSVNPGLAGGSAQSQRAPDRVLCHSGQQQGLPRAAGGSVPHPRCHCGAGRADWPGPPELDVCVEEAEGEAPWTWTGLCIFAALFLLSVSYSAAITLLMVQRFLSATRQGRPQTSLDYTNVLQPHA

Row | SMILES | IC50
1 | CCNC1=NS(=O)(=O)N=C1NC1CCc2cc(S(=O)(=O)NCC(C)C)c3cc(C4CC4)ncc3c21 (centres unmarked) [Example 66, 3-cyclopropyl-9-[[4-(ethylamino)-1,1-dioxo-1,2,5-thiadiazol-3-yl]amino]-N-(2-methylpropyl)-8,9-dihydro-7H-cyclopenta[h]isoquinoline-5-sulfonamide] | 100 to 2000 nM
2 | CC(C)CNS(=O)(=O)c1cc2c(c3cnc(C4CC4)cc13)C(Nc1nncn1-c1ccnn1C)CC2 (centres unmarked) [Example 3, 3-cyclopropyl-N-isobutyl-9-[[4-(2-methylpyrazol-3-yl)-1,2,4-triazol-3-yl]amino]-8,9-dihydro-7H-cyclopenta[h]isoquinoline-5-sulfonamide] | 100 to 2000 nM
3 | Cc1cc(C(=O)NC2CN(C3CCc4c3cc(S(=O)(=O)NCC(C)(C)F)c3cc(C5CC5)ncc43)C2)n(C)n1 (centres unmarked) [Example 59, N-[1-[3-cyclopropyl-5-[(2-fluoro-2-methylpropyl)sulfamoyl]-8,9-dihydro-7H-cyclopenta[h]isoquinolin-7-yl]azetidin-3-yl]-2,5-dimethylpyrazole-3-carboxamide] | 100 to 2000 nM
4 | Cc1cc(Nc2nncn2[C@H]2CCc3c2cc(S(=O)(=O)NCC(C)(C)F)c2cc(C4CC4)ncc32)n(C)n1 (single isomer, unassigned) [Example 86, (7R*)-3-cyclopropyl-7-[3-[(2,5-dimethylpyrazol-3-yl)amino]-1,2,4-triazol-4-yl]-N-(2-fluoro-2-methylpropyl)-8,9-dihydro-7H-cyclopenta[h]isoquinoline-5-sulfonamide] | 50 to 100 nM
5 | CC(C)(F)CNS(=O)(=O)c1cc2c(c3cnc(C4CC4)cc13)CC[C@H]2n1ccnc1NCC1CC1 (single isomer, unassigned) [Example 12, (7R*)-3-cyclopropyl-7-[2-(cyclopropylmethylamino)imidazol-1-yl]-N-(2-fluoro-2-methylpropyl)-8,9-dihydro-7H-cyclopenta[h]isoquinoline-5-sulfonamide] | 100 to 2000 nM
6 | CC(C)CNS(=O)(=O)c1cc2c(c3cnc(C4CC4)cc13)CCC2NC(=S)Nc1cccnc1 (centres unmarked) [Example 95, 1-[3-cyclopropyl-5-(isobutylsulfamoyl)-8,9-dihydro-7H-cyclopenta[h]isoquinolin-7-yl]-3-(3-pyridyl)thiourea] | 10 to 50 nM
7 | O=S(=O)(NC1CC(F)(F)C1)c1cc2c(c3cnc(C4CC4)cc13)CCC2n1cnnc1NCC1CC1 (centres unmarked) [Example 81, 3-cyclopropyl-7-[3-(cyclopropylmethylamino)-1,2,4-triazol-4-yl]-N-(3,3-difluorocyclobutyl)-8,9-dihydro-7H-cyclopenta[h]isoquinoline-5-sulfonamide] | 100 to 2000 nM
8 | Cc1cc(-n2cnnc2NC2CCc3c2cc(S(=O)(=O)NCC(C)(C)F)c2cc(C4CC4)nnc32)n(C)n1 (centres unmarked) [Example 24, 3-cyclopropyl-7-[[4-(2,5-dimethylpyrazol-3-yl)-1,2,4-triazol-3-yl]amino]-N-(2-fluoro-2-methylpropyl)-8,9-dihydro-7H-cyclopenta[h]cinnoline-5-sulfonamide] | 10 to 50 nM
9 | CC(C)CNS(=O)(=O)c1cc2c(c3cnc(C4CC4)c(F)c13)CCC2 [Example 27, 3-cyclopropyl-4-fluoro-N-(2-methylpropyl)-8,9-dihydro-7H-cyclopenta[h]isoquinoline-5-sulfonamide] | 100 to 2000 nM
10 | Cn1c(NC2CCc3cc(S(=O)(=O)NCC(C)(C)F)c4cc(C5CC5)ncc4c32)nc2ccccc21 (centres unmarked) [Example 17, 3-cyclopropyl-N-(2-fluoro-2-methylpropyl)-9-[(1-methylbenzimidazol-2-yl)amino]-8,9-dihydro-7H-cyclopenta[h]isoquinoline-5-sulfonamide] | 100 to 2000 nM
11 | CC(C)CNS(=O)(=O)c1cc2c(c3cnc(C4CC4)cc13)C(NC(=S)Nc1cccnc1)CC2 (centres unmarked) [Example 74, 1-[3-cyclopropyl-5-(2-methylpropylsulfamoyl)-8,9-dihydro-7H-cyclopenta[h]isoquinolin-9-yl]-3-pyridin-3-ylthiourea] | 100 to 2000 nM
